Measurements as given in ChEMBL document CHEMBL1201862, “PubChem BioAssay data set” (2004).
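Briefly, cells in 96-well plates were exposed to five compound concentrations for 48 h, and endpoints were estimated by linear interpolation. GI50 is the concentration that inhibits growth by half.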 The source made the active and inactive calls. Rule as the data show it: active = GI50 up to about 1.1 µM and inactive = higher.

Tests used:
Assay in all cases: NCI tumour cell line growth inhibition, 48 h
HCT-15 = test system: HCT-15
MDA-MB-231 = test system: MDA-MB-231
OVCAR-8 = test system: OVCAR-8
TK-10 = test system: TK-10
UACC-257 = test system: UACC-257
M14 = test system: M14
SK-MEL-2 = test system: SK-MEL-2
SK-MEL-5 = test system: SK-MEL-5
SNB-75 = test system: SNB-75
HL-60 = test system: HL-60
MDA-MB-435 = test system: MDA-MB-435
OVCAR-5 = test system: OVCAR-5
HOP-62 = test system: HOP-62
SF-539 = test system: SF-539
CCRF-CEM = test system: CCRF-CEM
T47D = test system: T47D
HCT-116 = test system: HCT-116
SF-268 = test system: SF-268
PC-3 = test system: PC-3
NCI/ADR-RES = test system: NCI/ADR-RES
K562 = test system: K562
DU-145 = test system: DU-145
MOLT-4 = test system: MOLT-4
UO-31 = test system: UO-31
EKVX = test system: EKVX
MCF7 = test system: MCF7
A549 = test system: A549
NCI-H460 = test system: NCI-H460
BT-549 = test system: BT-549
OVCAR-3 = test system: OVCAR-3
A498 = test system: A498
ACHN = test system: ACHN
IGROV-1 = test system: IGROV-1
RPMI-8226 = test system: RPMI-8226
HT-29 = test system: HT-29
SN12C = test system: SN12C
COLO 205 = test system: COLO 205
NCI-H226 = test system: NCI-H226
CAKI-1 = test system: CAKI-1
SF-295 = test system: SF-295
SR = test system: SR
KM12 = test system: KM12
NCI-H23 = test system: NCI-H23
UACC-62 = test system: UACC-62
RXF 393 = test system: RXF 393
SK-MEL-28 = test system: SK-MEL-28
786-0 = test system: 786-0
SNB-19 = test system: SNB-19
U-251 = test system: U-251
MDA-N = test system: MDA-N
Hs-578T = test system: Hs-578T
SW-620 = test system: SW-620
NCI-H522 = test system: NCI-H522
Malme-3M = test system: Malme-3M
HCC 2998 = test system: HCC 2998
LOX IMVI = test system: LOX IMVI
SK-OV-3 = test system: SK-OV-3
OVCAR-4 = test system: OVCAR-4
HOP-92 = test system: HOP-92

## Cc1nc2c(=O)n(C)ncc2[nH]1
HCT-15
  GI50: > 100 µM
MDA-MB-231
  GI50: > 100 µM (inactive)
OVCAR-8
  GI50: > 100 µM (inactive)
TK-10
  GI50: > 100 µM (inactive)
UACC-257
  GI50: > 100 µM (inactive)
M14
  GI50: > 100 µM (inactive)
SK-MEL-2
  GI50: > 100 µM (inactive)
SK-MEL-5
  GI50: > 100 µM (inactive)
SNB-75
  GI50: 22.6 µM (inactive)
HL-60
  GI50: 33.4 µM (inactive)
MDA-MB-435
  GI50: > 100 µM (inactive)
OVCAR-5
  GI50: > 100 µM (inactive)
HOP-62
  GI50: > 100 µM (inactive)
SF-539
  GI50: > 100 µM (inactive)
CCRF-CEM
  GI50: > 100 µM (inactive)
T47D
  GI50: > 100 µM (inactive)
HCT-116
  GI50: > 100 µM (inactive)
SF-268
  GI50: > 100 µM (inactive)
PC-3
  GI50: > 100 µM (inactive)
NCI/ADR-RES
  GI50: > 100 µM (inactive)
K562
  GI50: > 100 µM (inactive)
DU-145
  GI50: > 100 µM (inactive)
MOLT-4
  GI50: > 100 µM (inactive)
UO-31
  GI50: > 100 µM (inactive)
EKVX
  GI50: > 100 µM (inactive)
MCF7
  GI50: > 100 µM (inactive)
A549
  GI50: > 100 µM (inactive)
NCI-H460
  GI50: > 100 µM (inactive)
BT-549
  GI50: > 100 µM (inactive)
OVCAR-3
  GI50: > 100 µM (inactive)
A498
  GI50: > 100 µM (inactive)
ACHN
  GI50: > 100 µM (inactive)
IGROV-1
  GI50: > 100 µM (inactive)
RPMI-8226
  GI50: > 100 µM (inactive)
HT-29
  GI50: > 100 µM (inactive)
SN12C
  GI50: > 100 µM (inactive)
COLO 205
  GI50: > 100 µM (inactive)
NCI-H226
  GI50: > 100 µM (inactive)
CAKI-1
  GI50: > 100 µM (inactive)
SF-295
  GI50: > 100 µM (inactive)
SR
  GI50: > 100 µM (inactive)
KM12
  GI50: > 100 µM (inactive)
NCI-H23
  GI50: > 100 µM (inactive)
UACC-62
  GI50: > 100 µM (inactive)
RXF 393
  GI50: > 100 µM (inactive)
SK-MEL-28
  GI50: > 100 µM (inactive)
786-0
  GI50: > 100 µM (inactive)
SNB-19
  GI50: > 100 µM (inactive)
U-251
  GI50: > 100 µM (inactive)
MDA-N
  GI50: > 100 µM (inactive)
Hs-578T
  GI50: 77.1 µM (inactive)
SW-620
  GI50: > 100 µM (inactive)

## CCCCCC(=O)OCC(=O)[C@H]1[C@H](C)C[C@H]2[C@@H]3C[C@H](F)C4=C/C(=N/OC(=O)c5cccc6c(=O)c7ccccc7[nH]c56)C=C[C@]4(C)[C@H]3[C@@H](O)C[C@@]21C
HCT-15
  GI50: 26.6 µM
MDA-MB-231
  GI50: 40.8 µM (inactive)
NCI-H522
  GI50: 14.3 µM (inactive)
OVCAR-8
  GI50: 10.8 µM (inactive)
TK-10
  GI50: 26.2 µM (inactive)
Malme-3M
  GI50: 12.5 µM (inactive)
UACC-257
  GI50: 20 µM (inactive)
M14
  GI50: 28.6 µM (inactive)
HCC 2998
  GI50: 24.7 µM (inactive)
SK-MEL-2
  GI50: 23.1 µM (inactive)
SK-MEL-5
  GI50: 14.7 µM (inactive)
SNB-75
  GI50: 19.1 µM (inactive)
HL-60
  GI50: > 100 µM (inactive)
MDA-MB-435
  GI50: 23.8 µM (inactive)
OVCAR-5
  GI50: 32.8 µM (inactive)
HOP-62
  GI50: 33.4 µM (inactive)
SF-539
  GI50: 23.9 µM (inactive)
CCRF-CEM
  GI50: 89.7 µM (inactive)
T47D
  GI50: 19 µM (inactive)
HCT-116
  GI50: 26.4 µM (inactive)
SF-268
  GI50: 53.8 µM (inactive)
LOX IMVI
  GI50: 17.6 µM (inactive)
PC-3
  GI50: 20.3 µM (inactive)
NCI/ADR-RES
  GI50: 11.2 µM (inactive)
K562
  GI50: 46.5 µM (inactive)
SK-OV-3
  GI50: 24.8 µM (inactive)
DU-145
  GI50: 39.4 µM (inactive)
MOLT-4
  GI50: 17.8 µM (inactive)
UO-31
  GI50: 16 µM (inactive)
EKVX
  GI50: 25.5 µM (inactive)
MCF7
  GI50: 21.9 µM (inactive)
A549
  GI50: 20.6 µM (inactive)
BT-549
  GI50: 16.5 µM (inactive)
OVCAR-3
  GI50: 18.9 µM (inactive)
ACHN
  GI50: 19.9 µM (inactive)
IGROV-1
  GI50: 25.2 µM (inactive)
OVCAR-4
  GI50: 27.4 µM (inactive)
RPMI-8226
  GI50: < 0.01 µM (active)
HT-29
  GI50: 21.7 µM (inactive)
SN12C
  GI50: 20 µM (inactive)
COLO 205
  GI50: 24.3 µM (inactive)
NCI-H226
  GI50: 4.78 µM (inactive)
CAKI-1
  GI50: 41.8 µM (inactive)
SF-295
  GI50: 47.8 µM (inactive)
SR
  GI50: 21.5 µM (inactive)
KM12
  GI50: 10.7 µM (inactive)
NCI-H23
  GI50: 29.6 µM (inactive)
UACC-62
  GI50: 16.7 µM (inactive)
786-0
  GI50: 48.3 µM (inactive)
SNB-19
  GI50: 37.3 µM (inactive)
U-251
  GI50: 45.9 µM (inactive)
MDA-N
  GI50: 28.3 µM (inactive)
Hs-578T
  GI50: 31.7 µM (inactive)
SW-620
  GI50: 28.2 µM (inactive)
HOP-92
  GI50: 73.1 µM (inactive)
